# Laboratory results from patent publication US8088623B2, “Dominant selection marker for the transformation of fungi” (priority 2003, dated 2012).
# Assays:
# [1] = test system: Mucor hiemalis; details: cited from earlier work
# [2] = test system: acetyl-CoA carboxylase (ACC) of yeast and filamentous fungi; details: cited from earlier work
# [3] = molecular target: T1, MS-ACC from E. coli (Escherichia coli, UniProt P24182); experiment: Sensitivity of prokaryotic MS-ACC to inhibition
# T1 construct: expressed in transfected cells; host or cells: Pichia pastoris GS115 transformed with pAO815-ACC4 (strain HWA4)
# [4] = test system: filamentous fungi and yeasts; details: growth of numerous filamentous fungi and yeasts; cited from earlier work
# [5] = test system: bacteria or prokaryotes; details: cited from earlier work
# [6] = test system: MF-ACC purified from rat liver; details: cited from earlier work
# [7] = test system: Pichia pastoris strain GS115; experiment: Soraphen A sensitivity of recipient strain GS115 on MM plates; type: cell-based; details: point and surface inoculation, 30° C., six days
# Protocol: Two methods were used to determine the concentration of Soraphen A inhibitory to the growth of P. pastoris GS115. On the one hand MM plates containing 0 to 0.1 μg/ml Soraphen A were locally inoculated with 10^6 to 10^2 cells. On the other hand 5000 cells were streaked onto such plates. Inokulations were incubated in duplicate at 30° C. for six days; 100 μl of 100% methanol was added daily to the lid of the inverted plates.
# [8] = test system: Ustilago zeae; details: cited from earlier work
# [9] = test system: Pichia pastoris transformant HWA4; experiment: Soraphen A sensitivity of transformant HWA4 (accA-D) on MM plates; type: cell-based; details: 30° C., six days
# Protocol: (§1) Transformation of spheroplasts was carried out with 10 μg of Sal I-linearized plasmid pAO815-ACC3 or pAO815-ACC4 following the manufacturer's instructions. Transformants were selected on RDB plates and in a second selection round the obtained histidine prototroph clones were tested for Soraphen A sensitivity on MM plates containing Soraphen A (0-0.1 μg/ml).
# [10] = test system: Pichia pastoris transformant HWA3; experiment: Soraphen A sensitivity of transformant HWA3 (accA, accC, accD) on MM plates; type: cell-based; details: 30° C., six days
# Protocol: as §1
# [11] = test system: Pichia pastoris transformant HWA3p; details: MM plates, 30° C., six days
# Protocol: For transformation by electroporation, 3-12 μg of Sal I-linearized plasmid pPIC3.5K-BCCP was mixed with the competent cells and pulsed in 0.1 cm electroporation cuvettes at 1.5 kV, 25 μF, and 200Ω using a Gene Pulser (Bio-Rad). Immediately after the pulse, 1 ml of 1 M sorbitol was added to the cuvette and the cells were incubated for regeneration for 1 hour at room temperature. The cell suspension was aliquoted into two sterile Eppendorf tubes, 0.5 ml of YPD medium or MM medium was added, respectively, and the cells were incubated for 3 more hours at room temperature thereby being shaked. 50-200 μl of the aliquotes in YPD were spread on YPD-G418 plates to select G418 resistant transformants, whereas aliquots in MM medium were spread on MM-agar containing 0.02 μg/ml Soraphen A.
# Histidine prototrophic or G418 resistant transformants were grown overnight in 20 ml MM medium. The cells were harvested by centrifugation and spotted onto MM plates containing different concentrations of Soraphen A (0-0.1 μg/ml). Duplicated plates were incubated at 30° C. for six days under daily addition of methanol.
# [12] = test system: MF-ACC purified from Ustilago maydis; details: cited from earlier work
structure (smiles),measurement,setting,value
CO[C@H]1CCCC[C@@H](c2ccccc2)OC(=O)[C@@H](C)[C@@]2(O)O[C@H]([C@@H](C)[C@H](O)[C@H]2OC)[C@@H](C)/C=C/[C@H]1OC [Soraphen A],MIC value,[1],0.03 µg/mL
same,inhibition of acetyl-CoA carboxylase (ACC) activity,[2],inhibits
same,sensitivity of MS-ACC to inhibition by Soraphen A,[3],insensitive
same,MIC values,[4],below 1 ug/ml
same,sensitivity to Soraphen,[5],generally not sensitive
same,inhibition of MF-ACC activity in vitro,[6],inhibit
same,Soraphen A concentration leading to complete inhibition of growth,[7],≤ 0.02 µg/mL
same,MIC value,[8],4 µg/mL
same,Soraphen A concentration not inhibiting growth (undiminished growth),[9],> 0.1 µg/mL
same,Soraphen A concentration giving no growth,[10],≤ 0.02 µg/mL
same,Soraphen A concentration up to which resistance is fully developed,[11],> 0.1 µg/mL
same,inhibition of MF-ACC activity in vitro,[12],inhibit
